Values of other authors, collected in patent publication US20040204482A1, “Extended release oral dosage form” (priority 2001, published 2004).

Details: in vivo

SMILES: NC(=O)c1ccc(F)c2c1C[C@@H](N(C1CCC1)C1CCC1)CO2.O.O=C(O)C(O)C(O)C(=O)O [(R)-3-N,N-dicyclobutylamino-8-fluoro-3,4-dihydro-2H-1-benzopyran-5-carboxamide hydrogen (2R,3R)-tartrate monohydrate]
- plasma elimination half-life, t1/2: 1.5 h
